Five compounds from ChEMBL document CHEMBL1221200, “Diarylquinolines target subunit c of mycobacterial ATP synthase” (Nat Chem Biol, 2007) can be followed below.

Values after ≈ are worked out from the molar mass of the structure shown.

By MIC90 is commonly meant an inhibitory concentration at the 90% level, which refers to growth in some studies and to a panel of isolates in others.

For this experiment, the system named is Mycobacterium tuberculosis. The experiment in a line: Antimicrobial activity against Mycobacterium bovis BCG by alamar blue assay. It is filed as functional, variant bovis BCG. For orientation: The colour change of resazurin is a common sign of viable cells or microbes.

`COc1nc2ccc(Br)cc2cc1[C@H](c1ccccc1)[C@@](O)(CCN(C)C)c1cccc2ccccc12` (racemic; 1c) returned an MIC90 of 7.9 mg/L (≈ 14.2 µM).

The compound `COc1nc2ccc(Br)cc2cc1[C@H](c1ccccc1)[C@@](O)(CCN(C)C)c1cccc2ccccc12` (racemic; 1d) gave an MIC90 of 1.8 mg/L (≈ 3.24 µM).

With `COc1nc2ccc(Br)cc2cc1[C@@H](c1ccccc1)[C@@](O)(CCN(C)C)c1cccc2ccccc12` (single isomer, unassigned) [BEDAQUILINE], the MIC90 is 1.8 mg/L (≈ 3.24 µM).

Consider `COc1nc2ccc(Br)cc2cc1[C@@H](c1ccccc1)[C@@](O)(CCN(C)C)c1cccc2ccccc12` [BEDAQUILINE], for which the MIC90 amounted to 0.07 mg/L (≈ 0.126 µM).

Consider `CO[C@H]1/C=C/O[C@@]2(C)Oc3c(C)c(O)c4c(O)c(c(/C=N/N5CCN(C)CC5)c(O)c4c3C2=O)NC(=O)/C(C)=C\C=C\[C@H](C)[C@H](O)[C@@H](C)[C@@H](O)[C@@H](C)[C@H](OC(C)=O)[C@@H]1C` [RIFAMPIN], for which the MIC90 (Mycobacterium tuberculosis, variant bovis BCG, read-out: MIC90) turned out to be 0.02 mg/L (≈ 0.0243 µM).
